Measurements reported in US20260248763A1 (BIO GENUINE (SHANGHAI) BIOTECH CO., LTD, priority 2023, published 2026).
pIC50: −log10 of the molar value.

Target: T1, OTR (Homo sapiens, UniProt P30559)
T1 construct: expressed in transfected cells; host or cells: OTR/HEK293 stably transfected cell line
T1 sequence (P30559 1-389): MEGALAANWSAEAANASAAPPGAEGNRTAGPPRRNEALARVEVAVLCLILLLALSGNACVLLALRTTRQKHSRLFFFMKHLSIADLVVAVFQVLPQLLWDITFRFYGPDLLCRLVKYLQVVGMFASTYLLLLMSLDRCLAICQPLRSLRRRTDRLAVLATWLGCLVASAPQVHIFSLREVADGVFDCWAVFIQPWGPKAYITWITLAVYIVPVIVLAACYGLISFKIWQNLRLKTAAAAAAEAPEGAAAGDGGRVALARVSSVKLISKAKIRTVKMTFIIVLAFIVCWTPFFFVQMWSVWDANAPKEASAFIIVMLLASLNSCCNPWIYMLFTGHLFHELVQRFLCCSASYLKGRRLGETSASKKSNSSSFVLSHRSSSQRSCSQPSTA
Experiment: Ca2+ mobilization in cells stably expressing OTR (FLIPR, antagonist mode)
Format: cell-based
Conditions: OTR/HEK293 stably transfected cell line
Excerpt: Test Example 1. Determination of the Effect of the Compound of the Present Disclosure on Ca^2+ Mobilization in Cells Stably Expressing OTR
To measure the antagonistic effect of the compound of the present disclosure on OTR activity expressed in the OTR/HEK293 stably transfected cell line.
• DMEM medium (Invitrogen, 11965) • F12 medium (Invitrogen, 11765) • Fetal bovine serum (Excell, FSP500) • Geneticin (Invitrogen, 10131) • Penicillin/Streptomycin (Invitrogen, SV30010) • Fluo-4 Direct kit (Invitrogen, F10471) • 384-well cell plate (Greiner, 781090) • 384-well compound plate (Greiner, 781280)
• FLIPR instrument (Molecular Device) • EHCO instrument (Labcyte) • Cell counter (Beckman, Vi-cell XR)
The cultured cells were washed twice with pre-heated DPBS and digested with appropriate amount of trypsin at 37° C. for 1 minute, and then appropriate amount of culture medium was added to terminate digestion. The cells were centrifuged at 1000 rpm for 5 minutes. The supernatant was gently discarded without disturbing the cell pellet at the bottom. The cells were resuspended in culture medium and 1 mL was taken out for cell counting and viability assessment using Vi-CELL™. The cells were diluted to 1×10^6 cells/mL (20,000 cells/20 μL) with culture medium, seeded into a 384-well cell plate and incubated at 37° C. with 5% CO2 for 16-20 h.
Formulation of 250 mM Probenecid solution: according to the kit instructions, 1 mL of FLIPR buffer salt solution was added to 77 mg of probenecid, prepared fresh just before use. Formulation of Fluo-4 Direct™ (2×, 8 μM) loading buffer: according to the kit instructions, the required amount of Fluo-4 Direct™ was taken out and thawed in advance, 10 mL of FLIPR buffer salt solution and 0.2 mL of 250 mM Probenecid solution were added to each tube, and the mixture was vortexed in the dark for >5 minutes, prepared fresh just before use.
Preparation of agonist reference compound plate: the agonist was diluted 3-fold in 10 points using ECHO, and 750 nL was transferred to the corresponding compound plate using ECHO.
Preparation of reference and test compound plates: the test compound was diluted 3-fold in 10 points with ECHO, and 900 nL was transferred to the corresponding compound plate; the reference compound was diluted 3-fold in 10 points with assay buffer salt solution, and 30 μL was transferred to the compound plate.
30 μL of assay buffer salt solution was added to the corresponding compound plate, and the mixture was centrifuged at 1000 rpm for 1 minute.
The cell plate prepared the day before was taken out of the incubator, and 20 μL of 2×Fluo-4 Direct™ buffer was added to each well, with a total volume of 40 μL.
The plate was incubated in an incubator at 37° C. with 5% CO2 for 50 minutes, and then placed at room temperature for 10 minutes.
The compound plate, cell plate, and pipette tips were placed into the instrument.
For the agonist reference compound plate: the FLIPR instrument software was run, 10 μL of the pre-determined concentration of agonist reference compound was added to the cell plate following the preset protocol, and the fluorescence signal was read. After reading, the data were exported to calculate the EC80 for each cell line, and the agonist at 6×EC80 concentration was prepared.
For the compound plate: the FLIPR instrument software was run, 10 μL of the pre-determined concentration of test compound and the reference compound were added to the cell plate following the preset protocol, and the fluorescence signal was read. 10 μL of the reference compound agonist at 6×EC80 concentration was added to the cell plate, and the fluorescence signal was read. For antagonist detection of the compound, the data were exported using the “Max-Min” and “Read 1 to Maximum allowed” methods in the software, and the data were fitted using Prism.

Row | pIC50 | Compound
1 | 6.81 | CO/N=C1/C[C@@H](CO)N(C(=O)c2ccc(-c3cccc(C#N)c3C(F)F)cc2)C1 [Example A0204, 2-(Difluoromethyl)-3-(4-[(2S, 4Z)-2-(hydroxymethyl)-4-(methoxyimino)pyrrolidine-1-carbonyl]phenyl)benzonitrile]
2 | 6.42 | CO/N=C1/C[C@@H](CO)N(C(=O)c2ccc(-c3cccc(C#N)c3C)s2)C1 [Example A0212, 3-(5-[(2S, 4Z)-2-(Hydroxymethyl)-4-(methoxyimino)pyrrolidine-1-carbonyl]thien-2-yl)-2-methylbenzonitrile]
3 | 6.70 | CO/N=C1/C[C@@H](CO)N(C(=O)c2cc(OC)c(-c3cccc(C#N)c3C)cn2)C1 [Example A0216, 3-(6-[(2S, 4Z)-2-(Hydroxymethyl)-4-(methoxyimino)pyrrolidine-1-carbonyl]-4-methoxypyridin-3-yl)-2-methylbenzonitrile]
4 | 6.95 | CO/N=C1\C[C@@H](CO)N(C(=O)c2ccc(-c3cccc(C#N)c3C)c(OC)n2)C1 [Example A0222, 3-(6-[(2S, 4E)-2-(Hydroxymethyl)-4-(methoxyimino)pyrrolidine-1-carbonyl]-2-methoxypyridin-3-yl)-2-methylbenzonitrile]
5 | 6.32 | CO/N=C1/CC[C@@H](CO)N(C(=O)c2ccc(-c3cccc(C#N)c3C)cc2)C1 [Example A0225, (S, Z)-4′-(2-(Hydroxymethyl)-5-(methoxyimino)piperidine-1-carbonyl)-2-methyl-[1,1′-biphenyl]-3-carbonitrile]
6 | 5.98 | CO/N=C1\CCN(C(=O)c2ccc(-c3cccc(C#N)c3C)cc2)[C@H](CO)C1 [Example A0226, (S,E)-4′-(2-(Hydroxymethyl)-4-(methoxyimino)piperidine-1-carbonyl)-2-methyl-[1,1′-biphenyl]-3-carbonitrile]
7 | 6.36 | CNC(=O)[C@@H]1C/C(=N/OC)CN1C(=O)c1ccc(-c2cccc(C#N)c2C)cc1 [Example A0228, (S, Z)-1-(3′-Cyano-2′-methyl-[1,1′-biphenyl]-4-carbonyl)-4-(methoxyimino)-N-methylpyrrolidine-2-carboxamide]
8 | 6.40 | CNC(=O)[C@@H]1C/C(=N\OC)CN1C(=O)c1ccc(-c2cccc(C#N)c2C)cc1 [Example A0232, (S, E)-1-(3′-Cyano-2′-methyl-[1,1′-biphenyl]-4-carbonyl)-4-(methoxyimino)-N-methylpyrrolidine-2-carboxamide]
9 | 6.62 | CO/N=C1\CC[C@@H](CO)N(C(=O)c2ccc(-c3cccc(C#N)c3C)cc2)C1 [Example A0234, (S, E)-4′-(2-(Hydroxymethyl)-5-(methoxyimino)piperidine-1-carbonyl)-2-methyl-[1,1′-biphenyl]-3-carbonitrile]

The next lines start with the compound.

Row | Compound | pIC50
10 | CO/N=C1/C[C@@H](CO)N(C(=O)c2ccc(-c3cccc(C)c3C)cc2C#N)C1 [Example A0131, 5-(2,3-Dimethylphenyl)-2-[(2S, 4Z)-2-(hydroxymethyl)-4-(methoxyimino)pyrrolidine-1-carbonyl]benzonitrile] | 6.76
11 | CO/N=C1/C[C@@H](CO)N(C(=O)c2cnc(-c3cccc(C)c3C)c(C(F)(F)F)n2)C1 [Example A0137] | 6.82
12 | CO/N=C1\C[C@@H](CO)N(C(=O)c2ccc(-c3cccc(C)c3C#N)cc2)C1 [Example A0144, (S, E)-4′-(2-(Hydroxymethyl)-4-(methoxyimino)pyrrolidine-1-carbonyl)-3-methyl-[1,1′-biphenyl]-2-carbonitrile] | 5.95
13 | CO/N=C1/C[C@@H](CO)N(C(=O)c2ccc(-c3cccc(C)c3C)c(OC3COC3)c2)C1 [Example A0147, (S, Z)-(2′, 3′-Dimethyl-2-(oxetan-3-yloxy)-[1, 1′-biphenyl]-4-yl)(2-(hydroxymethyl)-4-(methoxyimino)pyrrolidin-1-yl)methanone] | 7.63
14 | COCCOc1cc(C(=O)N2C/C(=N\OC)C[C@H]2CO)ccc1-c1cccc(C)c1C [Example A0149, (S, Z)-(2-(Hydroxymethyl)-4-(methoxyimino)pyrrolidin-1-yl)(2-(2-methoxyethoxy)-2′, 3′-dimethyl-[1,1′-biphenyl]-4-yl)methanone] | 7.77
15 | CO/N=C1\C[C@@H](CO)N(C(=O)c2ccc(-c3cccc(C)c3C)cc2C#N)C1 [Example A0153, 5-(2,3-Dimethylphenyl)-2-[(2S, 4E)-2-(hydroxymethyl)-4-(methoxyimino)pyrrolidine-1-carbonyl]benzonitrile] | 6.31
16 | CO/N=C1/C[C@@H](CO)N(C(=O)c2ccc(-c3cccc(C)c3C)c(C(=O)N3CCOCC3)c2)C1 [Example A0158, (25, 4Z)-(2′, 3′-Dimethyl-2-(morpholine-4-carbonyl)-[1, 1′-biphenyl]-4-yl)(2-(hydroxymethyl)-4-(methoxyimino)pyrrolidin-1-yl)methanone] | 5.82
17 | CO/N=C1/C[C@@H](CO)N(C(=O)c2ccc(-c3cccc(C#N)c3C)c3c2OCC(=O)N3C)C1 [Example A0163, (S, Z)-3-(8-(2-(Hydroxymethyl)-4-(methoxyimino)pyrrolidine-1-carbonyl)-4-methyl-3-oxo-3,4-dihydro-2H-benzo[b][1,4]oxazin-5-yl)-2-methylbenzonitrile] | 6.69
18 | CO/N=C1\C[C@@H](CO)N(C(=O)c2ccc(-c3cccc(C)c3C)c(C(=O)NC3COC3)c2)C1 [Example A0179, (S, E)-4-(2-(Hydroxymethyl)-4-(methoxyimino)pyrrolidine-1-carbonyl)-2′, 3′-dimethyl-N-(oxetan-3-yl)-[1,1′-biphenyl]-2-carboxamide] | 6.78
19 | CO/N=C1/C[C@@H](CO)N(C(=O)c2ccc(-c3cccc(C#N)c3C)c(C3(O)COC3)c2)C1 [Example A0183, 3-(4-[(2S, 4Z)-2-(Hydroxymethyl)-4-(methoxyimino)pyrrolidine-1-carbonyl]-2-(3-hydroxyoxetan-3-yl)phenyl)-2-methylbenzonitrile] | 5.83
20 | CO/N=C1/C[C@@H](CO)N(C(=O)c2ccc(-c3cccc(C#N)c3C)c(OCC3CC3)n2)C1 [Example A0188, (S, Z)-3-(2-(Cyclopropylmethoxy)-6-(2-(hydroxymethyl)-4-(methoxyimino)pyrrolidine-1-carbonyl)pyridin-3-yl)-2-methylbenzonitrile] | 7.36
21 | CO/N=C1/C[C@@H](CO)N(C(=O)c2ccc(-c3cccc(C#N)c3C)c3ncnn23)C1 [Example A0190, (S, Z)-3-(5-(2-(Hydroxymethyl)-4-(methoxyimino)pyrrolidine-1-carbonyl)-[1,2,4]triazolo[1,5-a]pyridin-8-yl)-2-methylbenzonitrile] | 5.82
22 | COCCNc1nc(C(=O)N2C/C(=N\OC)C[C@H]2CO)ccc1-c1cccc(C#N)c1C [Example A0197, (S, Z)-3-(6-(2-(Hydroxymethyl)-4-(methoxyimino)pyrrolidine-1-carbonyl)-2-((2-methoxyethyl)amino)pyridin-3-yl)-2-methylbenzonitrile] | 6.40
23 | CO/N=C1/C[C@@H](CO)N(C(=O)c2ccc(-c3cccc(C#N)c3C)c(N3CCOCC3)n2)C1 [Example A0198, (S, Z)-3-(6-(2-(Hydroxymethyl)-4-(methoxyimino)pyrrolidine-1-carbonyl)-2-morpholinopyridin-3-yl)-2-methylbenzonitrile] | 6.01
